Blank lines part the entries; values can stand above or below the molecule they belong to.
Assays:
[1] = target: T1, Cysteinyl leukotriene receptor 1 (Cavia porcellus, UniProt Q2NNR5); assay: Inhibition of [3H]LTD4 binding to guinea-pig lung membranes; format: tissue-based, Membrane
T1 sequence (Q2NNR5 whole entry): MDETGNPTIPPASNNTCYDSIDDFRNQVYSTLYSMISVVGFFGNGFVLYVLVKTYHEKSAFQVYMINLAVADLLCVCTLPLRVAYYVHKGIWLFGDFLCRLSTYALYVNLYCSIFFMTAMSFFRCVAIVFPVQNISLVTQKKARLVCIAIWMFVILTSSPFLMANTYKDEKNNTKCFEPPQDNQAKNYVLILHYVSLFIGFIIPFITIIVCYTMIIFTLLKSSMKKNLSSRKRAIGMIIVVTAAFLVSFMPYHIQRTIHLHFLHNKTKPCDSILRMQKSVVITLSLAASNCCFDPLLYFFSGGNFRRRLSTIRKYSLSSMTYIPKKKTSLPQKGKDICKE

[2] = target: T2, Cysteinyl leukotriene receptor 1 (Cavia porcellus) (UniProt Q2NNR5); assay: Compound was evaluated for its antagonist affinity at 1 uM on guinea-pig trachea rings against LTD4 receptor; format: functional, tissue-based
T2 sequence (whole entry): T1 sequence (Q2NNR5 whole entry)

Cavia porcellus [3] = species on record: Cavia porcellus; assay: Compound was evaluated for its agonist activity on guinea-pig ileum, value expressed as the negative logarithm of the ED50 value; format: functional
[4] = target: T1, Cysteinyl leukotriene receptor 1; assay: Compound was evaluated for its binding affinity on guinea-pig ileum; format: tissue-based
[5] = target: T2, Cysteinyl leukotriene receptor 1 (Cavia porcellus); assay: Compound was evaluated for its antagonist affinity at 10 (uM) on guinea-pig trachea rings against LTD4 receptor; format: functional, tissue-based
Cavia porcellus [6] = assay: Compound was tested in vivo for antagonistic potency of LTD4 induced contractions of guinea-pig trachea after oral administration; format: functional; settings: read-out: ID50 (the source's name)
[7] = target: T3, Cysteinyl leukotriene receptor 1 (Homo sapiens) (UniProt Q9Y271); assay: Compound was evaluated for its antagonist affinity against LTD4 on human bronchial muscle; format: functional, tissue-based; settings: Muscle tissue
T3 sequence (whole entry): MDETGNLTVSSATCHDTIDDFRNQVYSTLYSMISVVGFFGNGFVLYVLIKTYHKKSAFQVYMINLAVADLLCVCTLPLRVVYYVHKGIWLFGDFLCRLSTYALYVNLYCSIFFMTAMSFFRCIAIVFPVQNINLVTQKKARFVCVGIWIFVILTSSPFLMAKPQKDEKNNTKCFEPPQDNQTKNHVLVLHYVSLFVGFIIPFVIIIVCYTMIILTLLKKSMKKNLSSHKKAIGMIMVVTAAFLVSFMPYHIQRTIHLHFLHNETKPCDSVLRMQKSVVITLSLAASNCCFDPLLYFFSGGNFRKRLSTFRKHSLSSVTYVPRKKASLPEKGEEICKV

[8] = target: T2, Cysteinyl leukotriene receptor 1 (Cavia porcellus); assay: (§1) Compound was evaluated for its antagonist affinity at 0.1 uM on guinea-pig trachea rings against LTD4 receptor; format: functional, tissue-based
Cavia porcellus [9] = species on record: Cavia porcellus; assay: spontaneously compound was tested for oral activity against LTD4 in spontaneously-breathing guinea pigs; format: functional; settings: read-out: ID50 (the source's name)
[10] = target: T1, Cysteinyl leukotriene receptor 1; assay: as §1; format: functional, tissue-based; settings: read-out: pA2 (converted)

- Ki [1]: > 100000 nM
SMILES: O=C(O)CCC[C@H](O)[C@@H](/C=C/CCc1ccccc1)Sc1ccc(C(=O)O)cc1

- pKB [2]: 6.9
SMILES: O=C(O)CC(/C=C\Cc1ccc(OCCCCOc2ccccc2)cc1)Sc1ccc(C(=O)O)cc1 (stereo unspecified)

- Ki [4]: 2 nM
SMILES: CCCCC/C=C\C\C=C/C=C/C=C/[C@@H](Sc1cccc(C(=O)O)c1)[C@@H](O)CCCC(=O)O
- pD2 (Cavia porcellus [3]): 8.2

- pKB [2]: 6.4
SMILES: O=C(O)c1ccc(SC(/C=C\Cc2ccc(OCCCCOc3ccccc3)cc2)C(=O)O)cc1 (stereo unspecified)

- pKB [5]: 6.5
SMILES: O=C(O)CCC[C@H](O)[C@@H](/C=C\c1ccc(OCCCCOc2ccccc2)cc1)Sc1ccc(C(=O)O)cc1

- pKB [2]: 7
SMILES: O=C(O)CCCC(/C=C\Cc1ccc(OCCCCOc2ccccc2)cc1)Sc1ccc(C(=O)O)cc1 (stereo unspecified)

- Ki [4]: 100 nM
SMILES: CCCCC/C=C\C\C=C/C=C/C=C/[C@@H](Sc1ccc(C(=O)O)cc1)[C@@H](O)CCCC(=O)O

- Ki [1]: 316 nM
SMILES: O=C(O)CCC[C@H](O)[C@@H](/C=C\CCCCCCCCc1ccccc1)Sc1ccc(C(=O)O)cc1

- Ki [1]: 5010 nM
SMILES: O=C(O)CCC[C@H](O)[C@@H](/C=C\CCCCCCCCCCCCCc1ccccc1)Sc1ccc(C(=O)O)cc1

- pKB [5]: 8.3
SMILES: O=C(O)CCC[C@H](O)[C@@H](/C=C\Cc1ccc(OCCCCOc2ccccc2)cc1)Sc1ccc(C(=O)O)cc1
- ED50 (Cavia porcellus [6]): ~3 mg/kg

- Ki [1]: 20000 nM
SMILES: O=C(O)CCC[C@H](O)[C@@H](/C=C\CCCCCc1ccccc1)Sc1ccc(C(=O)O)cc1

- Ki [1]: 1260 nM
SMILES: O=C(O)CCC[C@H](O)[C@@H](/C=C\CCCCCCCCCCCc1ccccc1)Sc1ccc(C(=O)O)cc1

- Ki [4]: 2 nM
SMILES: CCCCC/C=C\C\C=C/C=C/C=C/[C@@H](SCC(=O)O)[C@@H](O)CCCC(=O)O
- pD2 (Cavia porcellus [3]): 8.5

- Ki [4]: 25.1 nM
SMILES: CCCCC/C=C\C\C=C/C=C/C=C/[C@@H](Sc1ccccc1C(=O)O)[C@@H](O)CCCC(=O)O
- pD2 (Cavia porcellus [3]): 6.9

- Ki [1]: 316 nM
SMILES: O=C(O)CCC[C@H](O)[C@@H](/C=C\CCCCCCCCCOc1ccccc1)Sc1ccc(C(=O)O)cc1

- pKB [5]: < 5
SMILES: O=C(O)CCC[C@H](O)[C@@H](/C=C\Cc1cccc(OCCCOc2ccccc2)c1)Sc1ccc(C(=O)O)cc1

- pKB [5]: < 5
SMILES: O=C(O)CCC[C@H](O)[C@@H](/C=C\c1cccc(OCCCCOc2ccccc2)c1)Sc1ccc(C(=O)O)cc1

- pKB [7]: 8
- pKB [8]: 8.4
SMILES: O=C(O)CCC(/C=C\Cc1ccc(OCCCCOc2ccccc2)cc1)Sc1ccc(C(=O)O)cc1 (stereo unspecified)
- ED50 (Cavia porcellus [9]): 2 mg/kg

SMILES: CCCCC/C=C\C\C=C/C=C/C=C/[C@@H](SC[C@H](N)C(=O)NCC(=O)O)[C@@H](O)CCCC(=O)O [LEUKOTRIENE D4]
- pD2 (Cavia porcellus [3]): 8.4

- pKB [5]: < 5
SMILES: O=C(O)CCC[C@H](O)[C@@H](/C=C\c1ccccc1OCCCCOc1ccccc1)Sc1ccc(C(=O)O)cc1

- Kb [10]: 3.98 nM
SMILES: O=C(O)CCC(/C=C/Cc1ccc(OCCCCOc2ccccc2)cc1)Sc1ccc(C(=O)O)cc1 (single isomer, unassigned; (+))

- Ki [1]: 251 nM
SMILES: O=C(O)CCC[C@H](O)[C@@H](/C=C\CCCCCCCCCc1ccccc1)Sc1ccc(C(=O)O)cc1

- pKB [7]: 6.8
- pKB [8]: 8.3
SMILES: O=C(O)CCCCC(/C=C\Cc1ccc(OCCCCOc2ccccc2)cc1)Sc1ccc(C(=O)O)cc1 (stereo unspecified)

- pKB [5]: < 5
SMILES: O=C(O)CCC[C@H](O)[C@@H](/C=C\Cc1ccccc1OCCCOc1ccccc1)Sc1ccc(C(=O)O)cc1

- pKB [5]: 6.8
SMILES: O=C(O)CCC[C@H](O)[C@@H](/C=C/c1cccc(OCCCCOc2ccccc2)c1)Sc1ccc(C(=O)O)cc1

- Ki [1]: 631 nM
SMILES: O=C(O)CCC[C@H](O)[C@@H](/C=C\CCCCCCCCOc1ccccc1)Sc1ccc(C(=O)O)cc1

- Ki [1]: > 100000 nM
SMILES: O=C(O)CCC[C@H](O)[C@@H](/C=C\CCc1ccccc1)Sc1ccc(C(=O)O)cc1

- Ki [1]: > 100000 nM
SMILES: O=C(O)CCC[C@H](O)[C@@H](/C=C/CCCc1ccccc1)Sc1ccc(C(=O)O)cc1

- Kb [10]: 100 nM
SMILES: O=C(O)CCC(/C=C/Cc1ccc(OCCCCOc2ccccc2)cc1)Sc1ccc(C(=O)O)cc1 (single isomer, unassigned; (-))

Source: ChEMBL document CHEMBL1151546, “A new structural analogue antagonist of peptido-leukotrienes. The discovery of bay x7195” (Bioorg Med Chem Lett, 1993)
